Experimental data taken from US11447487B2, “Spiroheptanyl hydantoins as rock inhibitors” (BRISTOL-MYERS SQUIBB COMPANY, priority 2017, dated 2022).

These compounds were tested against ROCK2 (Homo sapiens (Human), UniProt O75116) (assay: ROCK assay (Caliper LABCHIP peptide phosphorylation)). Details: 5 μM ATP, 1.5 μM peptide substrate.
ROCK2, sequence (O75116 whole entry, species assumed): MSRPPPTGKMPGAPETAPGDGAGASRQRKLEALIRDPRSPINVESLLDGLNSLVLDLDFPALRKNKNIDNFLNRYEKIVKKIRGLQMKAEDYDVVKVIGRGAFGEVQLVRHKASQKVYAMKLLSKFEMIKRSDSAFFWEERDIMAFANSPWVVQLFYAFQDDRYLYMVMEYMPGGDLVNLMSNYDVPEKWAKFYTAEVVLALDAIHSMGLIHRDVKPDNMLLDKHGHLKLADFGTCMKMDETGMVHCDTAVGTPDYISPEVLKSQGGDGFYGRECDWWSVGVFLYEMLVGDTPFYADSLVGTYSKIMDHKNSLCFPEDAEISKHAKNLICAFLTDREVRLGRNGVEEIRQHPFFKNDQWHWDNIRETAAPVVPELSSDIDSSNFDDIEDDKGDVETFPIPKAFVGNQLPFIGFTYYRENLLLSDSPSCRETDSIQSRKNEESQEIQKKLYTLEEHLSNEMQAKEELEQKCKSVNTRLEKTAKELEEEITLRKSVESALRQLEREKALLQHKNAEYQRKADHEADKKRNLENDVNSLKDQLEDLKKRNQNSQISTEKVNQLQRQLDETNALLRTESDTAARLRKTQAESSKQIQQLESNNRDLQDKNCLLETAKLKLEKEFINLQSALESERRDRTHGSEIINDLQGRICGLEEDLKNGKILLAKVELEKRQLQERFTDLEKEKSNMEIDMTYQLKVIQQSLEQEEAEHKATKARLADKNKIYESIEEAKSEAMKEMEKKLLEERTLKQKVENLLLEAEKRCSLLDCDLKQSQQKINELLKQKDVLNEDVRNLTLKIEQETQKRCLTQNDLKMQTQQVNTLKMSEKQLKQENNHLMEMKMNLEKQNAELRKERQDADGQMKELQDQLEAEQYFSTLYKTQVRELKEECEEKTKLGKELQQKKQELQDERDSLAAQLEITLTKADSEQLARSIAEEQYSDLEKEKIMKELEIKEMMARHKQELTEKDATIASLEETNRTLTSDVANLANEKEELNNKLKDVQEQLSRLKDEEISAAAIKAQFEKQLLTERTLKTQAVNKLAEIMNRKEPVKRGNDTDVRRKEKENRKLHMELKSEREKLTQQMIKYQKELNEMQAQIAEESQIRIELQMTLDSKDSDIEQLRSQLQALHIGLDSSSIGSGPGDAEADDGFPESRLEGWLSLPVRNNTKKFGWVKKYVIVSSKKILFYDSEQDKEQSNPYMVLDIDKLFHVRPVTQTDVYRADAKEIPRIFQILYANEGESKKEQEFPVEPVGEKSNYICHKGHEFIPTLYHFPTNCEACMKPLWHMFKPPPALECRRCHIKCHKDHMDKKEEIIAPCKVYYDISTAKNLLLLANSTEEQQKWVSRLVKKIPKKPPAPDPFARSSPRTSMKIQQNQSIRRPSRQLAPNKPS
Format: biochemical
Description: The effectiveness of compounds of the present invention as ROCK inhibitors can be determined in a 30 μL assay containing 20 mM HEPES, pH 7.5, 20 mM MgCl2, 0.015% Brij-35, 4 mM DTT, 5 μM ATP and 1.5 μM peptide substrate (FITC-AHA-AKRRRLSSLRA-OH) (SEQ ID No. 1). Compounds were dissolved in DMSO so that the final concentration of DMSO was <2%, and the reaction was initiated with Rho kinase variants. After incubation, the reaction was terminated by the addition of EDTA and the phosphorylated and non-phosphorylated peptides separated using a LABCHIP® 3000 Reader (Caliper Life Sciences). […] Compounds were tested in dose-response format, and the inhibition of kinase activity was calculated at each concentration of compound. The inhibition data were fit using a curve-fitting program to determine the IC50; i.e., the concentration of compound required to inhibit 50% of kinase activity. Representative Examples were tested in the ROCK assay described above and found having ROCK inhibitory activity. A range of ROCK inhibitory activity (IC50 values) of ≤50 μM (50000 nM) was observed. Table A below lists the ROCK IC50 values measured for the following examples.
Compound `NC(=O)c1cccnc1OC1CC2(C1)CC(N1C(=O)CN(c3ccccc3)C1=O)C2` (stereo not drawn) [Example 3, 2-{[6-(2,5-dioxo-3-phenylimidazol-idin-1-yl)spiro-[3.3]heptan-2-yl]-oxy}pyridine-3-carboxamide] has an IC50 of 9 nM. With `NC(=O)c1cccnc1O[C@H]1C[C@]2(C1)C[C@H](N1C(=O)NC(CCOCC(F)(F)F)C1=O)C2` (single isomer, unassigned) [Example 61] the IC50 was 378 nM. Work on `CC(C)CN1C(=O)C(=O)N([C@H]2C[C@@]3(C[C@H](Oc4ncccc4C(N)=O)C3)C2)C1=O` (stereo partly drawn) [Example 67, 2-{[(αR)-6-[3-(2-methylpropyl)-2,4,5-trioxo-imidazolidin-1-yl]-spiro[3.3]heptan-2-yl]oxy}pyridine-3-carboxamide] yielded an IC50 of 1780 nM. Compound `CC(C[C@@H]1NC(=O)N([C@H]2C[C@@]3(C[C@H](Oc4ncccc4C(N)=O)C3)C2)C1=O)c1ccccc1` (stereo partly drawn) [Example 95, 2-(((αR)-6-((S)-2,5-dioxo-4-(2-phenyl-propyl)imidazolidin-1-yl)spiro[3.3]heptan-2-yl)oxy)nicotinamide] has an IC50 of 6 nM. Work on `NC(=O)c1cccnc1OC1CC2(C1)CC(N1C(=O)CN(Cc3ccccc3)C1=O)C2` (stereo not drawn) [Example 10, 2-{[6-(3-benzyl-2,5-dioxoimidazol-idin-1-yl)spiro-[3.3]heptan-2-yl]-oxy}pyridine-3-carboxamide] yielded an IC50 of 224 nM. `NC(=O)c1cccnc1O[C@H]1C[C@]2(C1)C[C@H](N1C(=O)NC(CCC3CCCCCC3)C1=O)C2` (single isomer, unassigned) [Example 43, 2-{[(αR)-6-[4-(2-cycloheptylethyl)-2,5-dioxoimidazol-idin-1-yl]spiro-[3.3]heptan-2-yl]-oxy}pyridine-3-carboxamide] showed an IC50 of 23 nM. `CCC(CC)C1NC(=O)N([C@H]2C[C@@]3(C[C@H](Oc4ncccc4C(N)=O)C3)C2)C1=O` (stereo partly drawn) [Example 51, 2-{[(αR)-6-[2,5-dioxo-4-(pentan-3-yl)imidazolidin-1-yl]spiro[3.3]heptan-2-yl]oxy}pyridine-3-carboxamide] was tested, and the IC50 was 155 nM. `[H][C@]1(Oc2ncccc2C(N)=O)C[C@@]2(C[C@H](N3C(=O)N[C@@H](C[C@H]4CC[C@H](NC(=O)c5ccccc5)CC4)C3=O)C2)C1` (stereo partly drawn) [Example 100] gave an IC50 of 52 nM. Work on `NC(=O)c1cccnc1O[C@H]1C[C@]2(C1)C[C@H](N1C(=O)NC(CC3CCCC3)C1=O)C2` (stereo partly drawn) [Example 45, 2-{[(αR)-6-[4-(cyclopentyl-methyl)-2,5-dioxo-imidazolidin-1-yl]spiro[3.3]-heptan-2-yl]oxy}-pyridine-3-carbox-amide] yielded an IC50 of 30 nM. With `NC(=O)c1cccnc1O[C@H]1C[C@]2(C1)C[C@H](N1C(=O)N[C@@H](CC3CC3)C1=O)C2` (stereo partly drawn) [Example 26, 2-{[(αR)-6-[(4S)-4-(cyclopropyl-methyl)-2,5-dioxo-imidazolidin-1-yl]-spiro[3.3]heptan-2-yl]oxy}pyridine-3-carboxamide] the IC50 was 38 nM. For `NC(=O)c1cccnc1O[C@H]1C[C@]2(C1)C[C@H](N1C(=O)NC(CC3CCCC3)C1=O)C2` (single isomer, unassigned) [Example 40, 2-{[(αR)-6-[4-(cyclopentyl-methyl)-2,5-dioxo-imidazolidin-1-yl]-spiro[3.3]heptan-2-yl]oxy}pyridine-3-carboxamide], the IC50 was 14 nM. In the case of `NC(=O)c1cccnc1O[C@H]1C[C@]2(C1)C[C@H](N1C(=O)C3CCCCN3C1=O)C2` (stereo partly drawn) [Example 17, 2-{[(αR)-6-{1,3-dioxo-hexahydro-1H-piperidino[1,2-c]imidazolidin-2-yl}spiro[3.3]heptan-2-yl]oxy}pyridine-3-carboxamide], the IC50 is reported as 1340 nM. Work on `CC(C)(C)OC(=O)NCCCC1NC(=O)N([C@H]2C[C@@]3(C[C@H](Oc4ncccc4C(N)=O)C3)C2)C1=O` (stereo partly drawn) [Example 15, tert-butyl N-(3-{2,5-dioxo-1-[(αR)-6-[(3-carbamoylpyridin-2-yl)oxy]spiro-[3.3]heptan-2-yl]imidazolidin-4-yl}propyl)-carbamate] yielded an IC50 of 744 nM. In the case of `NC(=O)c1cccnc1O[C@H]1C[C@]2(C1)C[C@H](N1C(=O)NC(CCC(F)(F)F)C1=O)C2` (stereo partly drawn) [Example 29, 2-{[(αR)-6-[2,5-dioxo-4-(3,3,3-trifluoropropyl)-imidazolidin-1-yl]spiro[3.3]-heptan-2-yl]oxy}-pyridine-3-carbox-amide], the IC50 is reported as 62 nM. Compound `NC(=O)c1cccnc1O[C@H]1C[C@]2(C1)C[C@H](N1C(=O)NC(CCC3CCCCCC3)C1=O)C2` (single isomer, unassigned) [Example 53, 2-{[(αR)-6-[4-(2-cycloheptylethyl)-2,5-dioxoimidazol-idin-1-yl]spiro-[3.3]-heptan-2-yl]-oxy}pyridine-3-carboxamide] has an IC50 of 171 nM. `NC(=O)c1cccnc1O[C@H]1C[C@]2(C1)C[C@H](N1C(=O)NC(CC(C(F)(F)F)C(F)(F)F)C1=O)C2` (single isomer, unassigned) [Example 56, 2-{[(αR)-6-{2,5-dioxo-4-[3,3,3-trifluoro-2-(trifluoromethyl)-propyl]imidazol-idin-1-yl}spiro-[3.3]heptan-2-yl]-oxy}pyridine-3-carboxamide] showed an IC50 of 256 nM. `NC(=O)c1cccnc1O[C@H]1C[C@]2(C1)C[C@H](N1C(=O)NC(CCOC(F)(F)F)C1=O)C2` (single isomer, unassigned) [Example 59, 2-{[(αR)-6-{2,5-dioxo-4-[2-(trifluoromethoxy)-ethyl]imidazolidin-1-yl}spiro[3.3]-heptan-2-yl]oxy}-pyridine-3-carbox-amide] showed an IC50 of 303 nM. Compound `NC(=O)c1cccnc1O[C@H]1C[C@]2(C1)C[C@H](N1C(=O)CN(c3cccc(F)c3)C1=O)C2` (stereo partly drawn) [Example 85, 2-(((αR)-6-(3-(3-fluorophenyl)-2,5-dioxoimidazolidin-1-yl)spiro[3.3]heptan-2-yl)oxy)nicotinamide] has an IC50 of 6 nM. With `[H][C@]1(Oc2ncccc2C(N)=O)C[C@]2(C[C@@H](N3C(=O)NCC(CC(C)C)C3=O)C2)C1` (stereo partly drawn) [Example 79] the IC50 was 131 nM. In the case of `NC(=O)c1cccnc1OC1CC2(C1)CC(N1C(=O)N[C@H](Cc3ccccc3)C1=O)C2` (stereo partly drawn) [Example 34, 2-({6-[(4R)-4-benzyl-2,5-dioxo-imidazolidin-1-yl]-spiro[3.3]heptan-2-yl}oxy)pyridine-3-carboxamide], the IC50 is reported as 539 nM. Compound `CCC(CC)CC1NC(=O)N([C@H]2C[C@@]3(C[C@H](Oc4ncccc4C(N)=O)C3)C2)C1=O` (single isomer, unassigned) [Example 38, 2-{[(αR)-6-(4-(2-ethylbutyl)-2,5-dioxoimidazolidin-1-yl]spiro[3.3]-heptan-2-yl]oxy}-pyridine-3-carbox-amide] has an IC50 of 5 nM. Compound `C[C@@H](C[C@@H]1NC(=O)N([C@H]2C[C@@]3(C[C@H](Oc4ncccc4C(N)=O)C3)C2)C1=O)C(F)(F)F` (stereo partly drawn) [Example 93, 2-(((αR)-6-((S)-2,5-dioxo-4-((S)-3,3,3-trifluoro-2-methylpropyl)imidazolidin-1-yl)spiro[3.3]heptan-2-yl)oxy)nicotinamide] has an IC50 of 9 nM. `C/C(=C\c1ccccc1)CC1NC(=O)N([C@H]2C[C@@]3(C[C@H](Oc4ncccc4C(N)=O)C3)C2)C1=O` (stereo partly drawn) [Example 90, 2-(((αR)-6-(4-((E)-2-methyl-3-phenylallyl)-2,5-dioxoimidazolidin-1-yl)spiro[3.3]heptan-2-yl)oxy)nicotinamide] showed an IC50 of 21 nM. Compound `NC(=O)c1cccnc1O[C@H]1C[C@]2(C1)C[C@H](N1C(=O)N[C@@H](CC(F)(F)F)C1=O)C2` (stereo partly drawn) [Example 32, 2-{[(αR)-6-[(4S)-2,5-dioxo-4-(2,2,2-trifluoroethyl)-imidazolidin-1-yl]-spiro[3.3]heptan-2-yl]oxy}pyridine-3-carboxamide] has an IC50 of 156 nM. `NC(=O)c1cccnc1O[C@H]1C[C@]2(C1)C[C@H](N1C(=O)CN(c3cccc(C(F)(F)F)c3)C1=O)C2` (stereo partly drawn) [Example 82, 2-(((αR)-6-(2,5-dioxo-3-(3-(trifluoromethyl)phenyl)imidazolidin-1-yl)spiro[3.3]heptan-2-yl)oxy)nicotinamide] was tested, and the IC50 was 5 nM. In the case of `CC(C)(O)COc1cccc(N2CC(=O)N([C@H]3C[C@@]4(C[C@H](Oc5ncccc5C(N)=O)C4)C3)C2=O)c1` (stereo partly drawn) [Example 88, 2-(((αR)-6-(3-(3-(2-hydroxy-2-methylpropoxy)phenyl)-2,5-dioxoimidazolidin-1-yl)spiro[3.3]heptan-2-yl)oxy)nicotinamide], the IC50 is reported as 55 nM. In the case of `NC(=O)c1cccnc1O[C@H]1C[C@]2(C1)C[C@H](N1C(=O)NC(CC3CCCO3)C1=O)C2` (single isomer, unassigned) [Example 55], the IC50 is reported as 212 nM. Work on `C[C@H](C[C@@H]1NC(=O)N([C@H]2C[C@@]3(C[C@H](Oc4ncccc4C(N)=O)C3)C2)C1=O)C(F)(F)F` (stereo partly drawn) [Example 92, 2-(((αR)-6-((S)-2,5-dioxo-4-((R)-3,3,3-trifluoro-2-methylpropyl)imidazolidin-1-yl)spiro[3.3]heptan-2-yl)oxy)nicotinamide] yielded an IC50 of 6 nM. For `Cc1c(CC2NC(=O)N([C@H]3C[C@@]4(C[C@H](Oc5ncccc5C(N)=O)C4)C3)C2=O)cnn1C` (stereo partly drawn) [Example 72, 2-{[(αR)-6-{4-[(1,5-dimethyl-1H-pyrazol-4-yl)-methyl]-2,5-dioxo-imidazolidin-1-yl}-spiro[3.3]heptan-2-yl]oxy}pyridine-3-carboxamide], the IC50 was 885 nM. `CCC[C@@H]1NC(=O)N([C@H]2C[C@@]3(C[C@H](Oc4ncccc4C(N)=O)C3)C2)C1=O` (stereo partly drawn) [Example 31, 2-{[(αR)-6-[(4S)-2,5-dioxo-4-propyl-imidazolidin-1-yl]-spiro[3.3]heptan-2-yl]oxy}pyridine-3-carboxamide] was tested, and the IC50 was 123 nM.
